Experimental data reported in US20240199546A1, “INHIBITORS OF SOLUTE CARRIER FAMILY 6A MEMBER 19 (SLC6A19) AND METHODS OF USE THEREOF” (Maze Therapeutics, Inc., priority 2022, published 2024).

Experiments:
human SLC6A19 and TMEM27 [1] = target: T1, human SLC6A19 and TMEM27 (Homo sapiens, UniProt Q695T7); test: Radiolabelled (3H) leucine uptake in CHO cells with doxycycline-inducible expression of human SLC6A19 and TMEM27 (Example B-1); assay type: cell-based; conditions: CHO cells with doxycycline-inducible expression of human SLC6A19 and TMEM27, read-out: SLC6A19_Radioligand Uptake Assay IC50
T1 construct: expressed in transfected cells
T1 sequence (Q695T7 1-634): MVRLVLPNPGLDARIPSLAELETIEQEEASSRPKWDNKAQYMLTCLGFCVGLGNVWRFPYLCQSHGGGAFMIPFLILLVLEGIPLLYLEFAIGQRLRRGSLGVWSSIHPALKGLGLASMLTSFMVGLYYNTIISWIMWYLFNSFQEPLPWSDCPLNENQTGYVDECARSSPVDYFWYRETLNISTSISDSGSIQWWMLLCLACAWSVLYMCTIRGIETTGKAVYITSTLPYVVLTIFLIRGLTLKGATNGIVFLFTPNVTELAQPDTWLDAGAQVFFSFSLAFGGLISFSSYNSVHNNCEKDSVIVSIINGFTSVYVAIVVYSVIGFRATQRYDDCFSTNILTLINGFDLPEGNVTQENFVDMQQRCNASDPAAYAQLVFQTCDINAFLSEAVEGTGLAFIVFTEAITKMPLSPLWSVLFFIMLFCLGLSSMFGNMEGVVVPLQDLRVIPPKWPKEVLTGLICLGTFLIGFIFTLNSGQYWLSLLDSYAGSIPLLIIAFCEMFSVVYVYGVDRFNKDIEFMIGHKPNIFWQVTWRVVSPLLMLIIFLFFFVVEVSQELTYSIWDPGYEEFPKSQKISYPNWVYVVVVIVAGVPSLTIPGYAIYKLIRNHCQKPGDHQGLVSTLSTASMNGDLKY
T1 sequence (Q9HBJ8 15-222 partner): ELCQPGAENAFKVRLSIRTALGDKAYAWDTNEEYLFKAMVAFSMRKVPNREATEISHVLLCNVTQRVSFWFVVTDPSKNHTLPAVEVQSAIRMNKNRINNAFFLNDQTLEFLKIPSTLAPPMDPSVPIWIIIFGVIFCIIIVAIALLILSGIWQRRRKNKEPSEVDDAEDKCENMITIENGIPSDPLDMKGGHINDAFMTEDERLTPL
Procedure, shortened: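 CHO cells were induced with doxycycline for 18 h at 37 °C, washed in HBSS, then exposed to compounds for 1 h: 8-point, 3-fold dilutions in duplicate, 0.5% DMSO final. Uptake measured by scintillation counting after 2 h shaking. Activity normalized with positive control as 0% and DMSO as 100%.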

human SLC6A19 and TMEM27 [2] = target: T1, human SLC6A19 and TMEM27; test: 13C6,15N-isoleucine uptake in CHO cells with doxycycline-inducible expression of human SLC6A19 and TMEM27, RapidFire mass spectrometry (Example B-2); assay type: cell-based; conditions: read-out: SLC6A19_RapidFire Uptake Assay IC50
Procedure, shortened: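 Read-out is RapidFire mass-spec peak area of 13C6,15N-isoleucine taken up over 20 min at 37 °C, after 20 min compound pre-exposure in pH 7.2 HEPES-buffered saline. Cells: doxycycline-induced CHO co-expressing human SLC6A19 and TMEM27; compounds as duplicate 10-point 2-fold dilutions, positive control setting 0% activity.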

Compound | IC50 (human SLC6A19 and TMEM27 [1]) | IC50 (human SLC6A19 and TMEM27 [2])
O=C(NCc1cc2cc(F)c(OCc3cscn3)cc2[nH]1)C1(F)CC1 [Compound 230, 1-fluoro-N-((5-fluoro-6-(thiazol-4-ylmethoxy)-1H-indol-2-yl)methyl)cyclopropane-1-carboxamide] | 69.6 nM | 22.9 nM
CC1CCN(C(=O)NCc2cc3ccc(OCc4ccon4)cc3[nH]2)C1 (stereo not drawn) [Compound 121, N-((6-(isoxazol-3-ylmethoxy)-1H-indol-2-yl)methyl)-3-methylpyrrolidine-1-carboxamide] | 282 nM | 590 nM
O=C(NCc1cc2cc(Cl)c(CCc3ccon3)cc2[nH]1)N1CCCC1 [Compound 412, N-((5-chloro-6-(2-(isoxazol-3-yl)ethyl)-1H-indol-2-yl)methyl)pyrrolidine-1-carboxamide] | 289 nM | 154 nM
CCC(=O)NCc1cc2cc(Cl)c(OCc3cscn3)cc2[nH]1 [Compound 146, N-((5-chloro-6-(thiazol-4-ylmethoxy)-1H-indol-2-yl)methyl)propionamide] | 60 nM | 36 nM
CC1(C(=O)NCc2cc3cc(Cl)c(OCc4ccon4)cc3[nH]2)CCC1 [Compound 504, N-((5-chloro-6-(isoxazol-3-ylmethoxy)-1H-indol-2-yl)methyl)-1-methylcyclobutane-1-carboxamide] | 391 nM | 406 nM
CC1(C(=O)NCc2cc3cc(Cl)c(CCc4ccon4)cc3[nH]2)CC1 [Compound 150, N-((5-chloro-6-(2-(isoxazol-3-yl)ethyl)-1H-indol-2-yl)methyl)-1-methylcyclopropane-1-carboxamide] | 120 nM | 36 nM
O=C(NCc1cc2cc(C(F)(F)F)c(OCc3cscn3)cc2[nH]1)N1CCC1 [Compound 478, N-((6-(thiazol-4-ylmethoxy)-5-(trifluoromethyl)-1H-indol-2-yl)methyl)azetidine-1-carboxamide] | 416 nM | 172 nM
Cn1ncc(COc2cc3[nH]c(CNC(=O)C4CC4)cc3cc2Cl)n1 [Compound 498, N-((5-chloro-6-((2-methyl-2H-1,2,3-triazol-4-yl)methoxy)-1H-indol-2-yl)methyl)cyclopropanecarboxamide] | 159 nM | 90.2 nM
Cc1cc(COc2cc3[nH]c(CNC(=O)C4(C)CC4)cc3cc2C)no1 [Compound 14, 1-methyl-N-((5-methyl-6-((5-methylisoxazol-3-yl)methoxy)-1H-indol-2-yl)methyl)cyclopropane-1-carboxamide] | 111 nM | 120 nM
CC(=O)NCc1cc2cc(Cl)c(OCc3cccc(F)n3)cc2[nH]1 [Compound 225, N-((5-chloro-6-((6-fluoropyridin-2-yl)methoxy)-1H-indol-2-yl)methyl)acetamide] | 156 nM | 80.8 nM
Cc1cc(CCc2cc3[nH]c(CNC(=O)C4(C)CC4)cc3cc2Cl)no1 [Compound 148] | 154 nM | 31 nM
CC1(C(=O)NCc2cc3cc(F)c(NCc4ccon4)cc3[nH]2)CC1 [Compound 524, N-((5-fluoro-6-((isoxazol-3-ylmethyl)amino)-1H-indol-2-yl)methyl)-1-methylcyclopropane-1-carboxamide] | 400 nM | 570 nM
CC1(C(=O)NCc2cc3cc(Cl)c(OCCC4CC(F)(F)C4)cc3[nH]2)CC1 [Compound 393, N-((5-chloro-6-(2-(3,3-difluorocyclobutyl)ethoxy)-1H-indol-2-yl)methyl)-1-methylcyclopropane-1-carboxamide] | 1460 nM | 781 nM
CC1(C(=O)NCc2cc3ccc(OCc4ccc(F)nc4)cc3[nH]2)CC1 [Compound 34, N-((6-((6-fluoropyridin-3-yl)methoxy)-1H-indol-2-yl)methyl)-1-methylcyclopropane-1-carboxamide] | 602 nM | 615 nM
CCC(=O)NCc1cc2cc(C)c(OCc3cscn3)cc2[nH]1 [Compound 529, N-((5-methyl-6-(thiazol-4-ylmethoxy)-1H-indol-2-yl)methyl)propionamide] | 192 nM | 154 nM
CC1(C(=O)NCc2cc3cc(Cl)c(OCc4cc(C(F)(F)F)on4)cc3[nH]2)CC1 [Compound 352, N-((5-chloro-6-((5-(trifluoromethyl)isoxazol-3-yl)methoxy)-1H-indol-2-yl)methyl)-1-methylcyclopropane-1-carboxamide] | 67.5 nM | 469 nM

The remaining lines, values ahead:

IC50 (human SLC6A19 and TMEM27 [1]) | IC50 (human SLC6A19 and TMEM27 [2]) | Compound
1550 nM | 3480 nM | CC(=O)NCc1cc2cc(F)c(OCc3ccno3)cc2[nH]1 [Compound 220, N-((5-fluoro-6-(isoxazol-5-ylmethoxy)-1H-indol-2-yl)methyl)acetamide]
426 nM | 833 nM | Cc1nc(COc2cc3[nH]c(CNC(=O)C4CC4)cc3cc2F)co1 [Compound 549, N-((5-fluoro-6-((2-methyloxazol-4-yl)methoxy)-1H-indol-2-yl)methyl)cyclopropanecarboxamide]
619 nM | 593 nM | O=C(NCc1cc2cc(Cl)c(NCc3ccon3)cc2[nH]1)N1CCC1 [Compound 407, N-((5-chloro-6-((isoxazol-3-ylmethyl)amino)-1H-indol-2-yl)methyl)azetidine-1-carboxamide]
954 nM | 1760 nM | Cc1nc(COc2cc3[nH]c(CNC(=O)C(C)C)cc3cc2F)co1 [Compound 551, N-((5-fluoro-6-((2-methyloxazol-4-yl)methoxy)-1H-indol-2-yl)methyl)isobutyramide]
531 nM | 2060 nM | CC1(C(=O)NCc2cc3ccc(NCc4ccon4)cc3[nH]2)CC1 [Compound 152, N-((6-((isoxazol-3-ylmethyl)amino)-1H-indol-2-yl)methyl)-1-methylcyclopropane-1-carboxamide]
185 nM | 294 nM | CC1(C(=O)NCc2cc3ccc(OCCc4ccon4)cc3[nH]2)CC1 [Compound 190, N-((6-(2-(isoxazol-3-yl)ethoxy)-1H-indol-2-yl)methyl)-1-methylcyclopropane-1-carboxamide]
187 nM | 84 nM | O=C(NCc1cc2cc(Cl)c(OCc3ccon3)cc2[nH]1)C1(C(F)(F)F)CC1 [Compound 134, N-((5-chloro-6-(isoxazol-3-ylmethoxy)-1H-indol-2-yl)methyl)-1-(trifluoromethyl)cyclopropane-1-carboxamide]
273 nM | 194 nM | CC1(C(=O)NCc2cc3cc(C4CC4)c(OCc4cscn4)cc3[nH]2)CC1 [Compound 341, N-((5-cyclopropyl-6-(thiazol-4-ylmethoxy)-1H-indol-2-yl)methyl)-1-methylcyclopropane-1-carboxamide]
124 nM | 33 nM | CC1(C(=O)NCc2cc3cc(Cl)c(OCc4ccsc4)cc3[nH]2)CC1 [Compound 25, N-((5-chloro-6-(thiophen-3-ylmethoxy)-1H-indol-2-yl)methyl)-1-methylcyclopropane-1-carboxamide]
170 nM | 79 nM | CC1(C(=O)NCc2cc3cc(Cl)c(OCc4ccc(F)cn4)cc3[nH]2)CC1 [Compound 28, N-((5-chloro-6-((5-fluoropyridin-2-yl)methoxy)-1H-indol-2-yl)methyl)-1-methylcyclopropane-1-carboxamide]
432 nM | 138 nM | Cc1cc2c(Cl)c(CNC(=O)N3CCC3)[nH]c2cc1OCc1cscn1 [Compound 475, N-((3-chloro-5-methyl-6-(thiazol-4-ylmethoxy)-1H-indol-2-yl)methyl)azetidine-1-carboxamide]
180 nM | 75 nM | Cc1cc(COc2cc3[nH]c(CNC(=O)C4(C)CC4)cc3cc2Cl)no1 [Compound 45, N-((5-chloro-6-((5-methylisoxazol-3-yl)methoxy)-1H-indol-2-yl)methyl)-1-methylcyclopropane-1-carboxamide]
407 nM | 519 nM | O=C(NCc1cc2cc(Cl)c(OCc3cocn3)cc2[nH]1)N1CCC1 [Compound 403, N-((5-chloro-6-(oxazol-4-ylmethoxy)-1H-indol-2-yl)methyl)azetidine-1-carboxamide]
1260 nM | 491 nM | CCc1c(CNC(=O)N2CCC2)[nH]c2cc(OCc3cscn3)c(Cl)cc12 [Compound 424, N-((5-chloro-3-ethyl-6-(thiazol-4-ylmethoxy)-1H-indol-2-yl)methyl)azetidine-1-carboxamide]
